Results on 14 compounds are retold here after ChEMBL document CHEMBL5257024, “Synthesis of α,β-Unsaturated Carbonyl-Based Compounds, Oxime and Oxime Ether Analogs as Potential Anticancer Agents for Overcoming Cancer Multidrug Resistance by Modulation of Efflux Pumps in Tumor Cells” (J Med Chem, 2016).

Series [1] concerns PC-3. Nature of the series: cells. The note with it: Homo sapiens, PC-3, 48 h.
Description: Antiproliferative activity against human PC-3 cells assessed as inhibition of cell growth incubated for 48 hrs by propidium iodide staining based fluorometer assay
The species entered for series [2] is Sus scrofa. Nature of the series: Induction of pig brain microtubule stabilization at 25 uM measured after 15 mins by fluorescence based turbidimetry. The class given is tissue-based.
Series [3] has as its system A549. Nature of the series: Antiproliferative activity against human A549 cells assessed as inhibition of cell growth incubated for 48 hrs by propidium iodide staining based fluorometer assay. The series is classed as functional. The note with it: A549, 48 h.
Series [4] has as its system MIA PaCa-2. In words: Antiproliferative activity against human MIA PaCa-2 cells assessed as inhibition of cell growth incubated for 48 hrs by propidium iodide staining based fluorometer assay. The conditions noted are these: MIA PaCa-2, 48 h. The series is classed as functional.
Series [5] concerns NCI-H460. Nature of the series: cells. The note with it: Homo sapiens, NCI-H460, 48 h.
Description: Antiproliferative activity against human NCI-H460 cells assessed as inhibition of cell growth incubated for 48 hrs by propidium iodide staining based fluorometer assay
Series [6] deals with L5178Y. Nature of the series: Reversal of multidrug resistance in mouse L5178Y cells transfected with human MDR1 assessed as reversal of rhodamine 123 accumulation at 5 ug/ml incubated for 30 mins by flow cytometry. The series is classed as functional, cell-based. The conditions noted are these: dose 5.0 µg/ml. (Flow cytometry measures light scatter and fluorescence of single cells or particles in a stream.)

A short description of series [7]: Cytotoxicity against human MCF-10A cells assessed as cell viability incubated for 96 hrs by MTT assay. The series is classed as toxicity, cell-based. On the set-up: concentration or dose not given beside the values. The conditions noted are these: read-out: Activity. (Formazan colour is commonly taken as a measure of viable cells.)
Series [8] addresses Tubulin (Sus scrofa) (UniProt P02554+P02550). Nature of the series: Inhibition of pig brain tubulin polymerization at 25 uM measured after 15 mins by fluorescence based turbidimetry. The series is classed as tissue-based.
Series [9] relates to PANC-1. Nature of the series: cells. The note with it: Homo sapiens, PANC-1, 48 h.
Description: Antiproliferative activity against human PANC-1 cells assessed as inhibition of cell growth incubated for 48 hrs by propidium iodide staining based fluorometer assay
Series [10] is described as follows: Inhibition of full length mouse GST-tagged BRAF V600E mutant preincubated for 60 mins followed by addition of N-terminal His-tagged full length human MEK1 incubated for 25 mins in presence of ATP by ELISA assay.
Series [11] has as its system MCF7. In words: Antiproliferative activity against human MCF7 cells assessed as inhibition of cell growth incubated for 48 hrs by propidium iodide staining based fluorometer assay. The conditions noted are these: MCF7, 48 h. The series is classed as functional.
The target in series [12] is Epidermal growth factor receptor (Homo sapiens, UniProt P00533). Nature of the series: Inhibition of recombinant 6His-tagged EGFR cytoplasmic domain (645 to 1186 residues) (unknown origin) autophosphorylation expressed in baculovirus infected Sf9 insect cells preincubated for 10 mins followed by ATP and MgCl2 addition measured after 60 mins by DELFIA/time-resolved fluorometric analysis.

Series [13] concerns L5178Y. In words: Reversal of multidrug resistance in mouse L5178Y cells transfected with human MDR1 assessed as reversal of rhodamine 123 accumulation at 50 ug/ml incubated for 30 mins by flow cytometry. The class given is functional, cell-based. The note with it: dose 50.0 µg/ml.
For series [14], the system named is HT-29. In words: cells. The note with it: Homo sapiens, HT-29, 48 h.
Description: Antiproliferative activity against human HT-29 cells assessed as inhibition of cell growth incubated for 48 hrs by propidium iodide staining based fluorometer assay
Series [15] can be described thus: Toxicity in mouse L5178Y cells transfected with human MDR1 at 50 ug/ml after short period of incubation by tryptan blue assay. The series is classed as cell-based. The note with it: dose 50 µg/ml.

Calls of active or inactive are those of the source. The rule behind the calls is not given here.

Epidermal growth factor receptor, sequence (P00533 whole entry, the tested form may be a part): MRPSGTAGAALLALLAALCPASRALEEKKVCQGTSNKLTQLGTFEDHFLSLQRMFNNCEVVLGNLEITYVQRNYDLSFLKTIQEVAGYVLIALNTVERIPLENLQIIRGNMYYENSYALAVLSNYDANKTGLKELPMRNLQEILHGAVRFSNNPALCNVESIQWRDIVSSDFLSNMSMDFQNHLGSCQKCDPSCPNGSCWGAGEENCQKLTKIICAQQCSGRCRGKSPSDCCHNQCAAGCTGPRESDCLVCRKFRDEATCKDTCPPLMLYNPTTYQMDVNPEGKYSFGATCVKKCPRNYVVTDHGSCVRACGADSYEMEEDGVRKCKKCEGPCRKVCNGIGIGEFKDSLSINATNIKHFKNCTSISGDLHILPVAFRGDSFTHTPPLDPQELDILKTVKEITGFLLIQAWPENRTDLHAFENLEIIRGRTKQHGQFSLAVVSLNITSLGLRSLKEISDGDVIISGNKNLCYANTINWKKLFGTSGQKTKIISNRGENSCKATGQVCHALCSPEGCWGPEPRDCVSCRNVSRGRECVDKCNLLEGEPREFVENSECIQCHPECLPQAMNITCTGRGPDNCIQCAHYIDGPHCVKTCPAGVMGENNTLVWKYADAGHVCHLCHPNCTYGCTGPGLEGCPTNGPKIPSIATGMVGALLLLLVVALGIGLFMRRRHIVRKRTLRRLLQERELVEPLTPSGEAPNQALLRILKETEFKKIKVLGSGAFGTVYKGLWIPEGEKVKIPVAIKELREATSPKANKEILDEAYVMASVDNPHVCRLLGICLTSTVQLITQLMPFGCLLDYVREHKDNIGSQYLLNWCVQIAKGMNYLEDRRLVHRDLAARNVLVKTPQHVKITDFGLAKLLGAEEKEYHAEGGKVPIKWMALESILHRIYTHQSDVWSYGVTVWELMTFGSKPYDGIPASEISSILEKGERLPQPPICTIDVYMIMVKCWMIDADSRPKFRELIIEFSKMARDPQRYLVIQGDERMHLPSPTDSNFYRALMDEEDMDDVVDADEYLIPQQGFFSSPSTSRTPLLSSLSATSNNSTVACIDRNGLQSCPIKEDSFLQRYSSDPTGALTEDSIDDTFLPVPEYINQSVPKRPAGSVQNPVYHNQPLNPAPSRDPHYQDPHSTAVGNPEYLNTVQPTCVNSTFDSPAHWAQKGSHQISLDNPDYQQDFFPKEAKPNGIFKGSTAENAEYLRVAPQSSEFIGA
Tubulin (Sus scrofa), sequence (P02550 whole entry, looked up): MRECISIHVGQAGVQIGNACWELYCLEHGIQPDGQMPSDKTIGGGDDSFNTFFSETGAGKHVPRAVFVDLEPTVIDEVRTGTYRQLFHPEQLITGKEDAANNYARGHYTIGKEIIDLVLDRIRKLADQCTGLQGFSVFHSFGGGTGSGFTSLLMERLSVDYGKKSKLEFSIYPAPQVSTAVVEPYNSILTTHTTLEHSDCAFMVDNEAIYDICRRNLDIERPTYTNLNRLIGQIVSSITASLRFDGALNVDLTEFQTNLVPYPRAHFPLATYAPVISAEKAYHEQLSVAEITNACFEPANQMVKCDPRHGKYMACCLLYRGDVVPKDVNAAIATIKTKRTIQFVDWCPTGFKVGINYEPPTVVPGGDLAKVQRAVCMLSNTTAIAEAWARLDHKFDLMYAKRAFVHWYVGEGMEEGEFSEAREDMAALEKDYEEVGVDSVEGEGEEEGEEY
Tubulin (Sus scrofa), sequence (P02554 whole entry, looked up): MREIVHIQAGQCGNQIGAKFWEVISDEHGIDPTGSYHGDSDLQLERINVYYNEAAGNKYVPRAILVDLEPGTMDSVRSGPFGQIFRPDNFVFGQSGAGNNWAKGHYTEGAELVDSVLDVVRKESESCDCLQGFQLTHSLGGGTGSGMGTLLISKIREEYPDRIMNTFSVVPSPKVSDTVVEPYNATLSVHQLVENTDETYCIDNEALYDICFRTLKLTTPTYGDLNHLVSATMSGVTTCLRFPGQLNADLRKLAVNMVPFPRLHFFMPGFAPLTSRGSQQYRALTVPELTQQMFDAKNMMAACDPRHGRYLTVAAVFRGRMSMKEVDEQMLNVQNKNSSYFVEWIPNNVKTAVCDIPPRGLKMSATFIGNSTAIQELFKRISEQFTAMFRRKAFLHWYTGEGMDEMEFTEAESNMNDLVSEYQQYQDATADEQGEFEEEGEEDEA

For orientation: IC50 means the concentration that inhibits the measured activity by half. Regarding `COc1cc(/C=C2\CN(C)C/C(=C\c3cc(OC)c(OC)c(OC)c3Br)C2=NO)c(Br)c(OC)c1OC`, the IC50 in [1] worked out at 0.09 µM; in series [3], 0.06 µM; in series [4], 0.07 µM; in [5] it was 0.08 µM; in series [9] it was 0.09 µM; in series [10], 1.6 µM. For the same compound, the half-maximal inhibitory concentration (IC50) in series [11] came to 0.06 µM; in series [12], 0.07 µM; in series [14], 0.07 µM. For the same compound, the result in series [2], in series [6] and in [13] was inactive. Besides, the viability at 96 h in series [7] came to 96%. Further, in [8], the inhibition result was “inactive”. Besides, the Activity result in [15] is on record as “Non-Toxic”.

On to `COc1ccc(/C=C2\CCc3ccc([N+](=O)[O-])cc3\C2=N\O)c(Cl)c1OC`, for which the half-inhibitory concentration (IC50) in series [1] amounted to 0.02 µM; in series [3] it was 0.08 µM; in [4], 0.09 µM; in series [5] it was 0.08 µM; in series [9] it was 0.09 µM; in series [10], 0.9 µM. Moreover, the figures for the half-maximal inhibitory concentration (IC50) in series [11], in series [12] and in series [14] were 0.07 µM, 2 µM and 0.09 µM, respectively. For the same compound, the outcome in series [2] and in series [6] was inactive. Besides, the viability at 96 h in series [7] came out at 93%. Also, in series [8], the inhibition entry was “Active”. The result in series [13] was Active. Besides, the Activity result in series [15] is recorded as “Non-Toxic”.

With `CCN(CC)CCON=C1/C(=C/c2cc(OC)c(OC)c(OC)c2Br)CN(C)C/C1=C\c1cc(OC)c(OC)c(OC)c1Br`, the IC50 came to 0.08 µM in [1]; 0.07 µM in series [3]; 0.08 µM in [4]; 0.07 µM in [5]; 0.09 µM in series [9]; 3.2 µM in [10]. For the same compound, the IC50 in series [11] came to 0.09 µM; in series [12], 0.1 µM; in [14] it was 0.09 µM. Also, the result in [2], in [6] and in series [13] was inactive. For the same compound, the viability at 96 h in series [7] amounted to 95%. Further, the inhibition result in series [8] was “inactive”. Besides, in [15], the Activity result is “Non-Toxic”.

As to `COc1cc(/C=C2\CC(C)c3ccccc3\C2=N\O)c(Br)c(OC)c1OC` (stereo not drawn), the IC50 in [1] was found to be 1.9 µM; in series [3], 2.2 µM; in series [4] it was 2.6 µM; in series [5], 1.9 µM; in series [9] it was 2 µM; in series [10] it was 2.4 µM. Further, the 50% inhibitory concentration (IC50) was 2.5 µM in series [11], 3.2 µM in [12] and 2.1 µM in series [14]. Moreover, the result in [2] and in [6] was inactive. Further, in series [7], the viability at 96 h came out at 98%. In series [8], the inhibition result was “Active”. Further, in series [13], the result was Active. In addition, the Activity entry in series [15] was “Non-Toxic”.

Turning to `CCN(CC)CCON=C1/C(=C/c2cc(OC)c(OC)c(OC)c2Br)CC(C)C/C1=C\c1cc(OC)c(OC)c(OC)c1Br` (stereo not drawn), the concentration for half-maximal inhibition (IC50) was determined as 4.7 µM in [1]; 4.1 µM in series [3]; 4.9 µM in series [4]; 4.1 µM in series [5]; 4.2 µM in [9]; 4.1 µM in series [11]. Moreover, in series [14], 4.5 µM corresponded to half-maximal inhibition (IC50). Moreover, in [2], the result was inactive. In addition, the viability at 96 h in series [7] worked out at 94%.

`COc1ccc(OC)c2c1CCC(=C\c1cc(OC)c(OC)c(OC)c1Br)/C2=N\O`: the concentration for half-maximal inhibition (IC50) in series [1] came to 0.7 µM; in [3], 0.4 µM; in [4], 0.6 µM; in [5], 0.6 µM; in series [9], 0.7 µM; in [10] it was 1.8 µM. For the same compound, the IC50 is 0.5 µM in series [11], 4.2 µM in series [12] and 0.6 µM in series [14]. Moreover, the result in series [2] and in [6] was inactive. In [7], the viability at 96 h came out at 89%. Moreover, the inhibition entry in [8] is “Active”. Moreover, in [13], the result was Active. The Activity entry in [15] is given as “Non-Toxic”.

For `CCN(CC)CCO/N=C1\C(=C\c2ccc(OC)c(OC)c2Cl)CCc2ccc([N+](=O)[O-])cc21`, the concentration for half-maximal inhibition (IC50) was determined as 6.4 µM in [1]; 7.1 µM in [3]; 6.6 µM in series [4]; 7.2 µM in [5]; 6.9 µM in series [9]; 6.6 µM in series [11]. This compound came in with a 50% inhibitory concentration (IC50) in series [14] of 7 µM. Moreover, in [7], the viability at 96 h amounted to 94%.

With `COc1cc(/C=C2\CCc3ccc(Br)cc3C2=O)c(Br)c(OC)c1OC`, the half-inhibitory concentration (IC50) in [1] stood at 9.3 µM; in [3], 9.1 µM; in series [4], 9 µM; in [5], 10.9 µM; in [9], 9.9 µM; in [11], 10.9 µM. The IC50 in [14] was found to be 9.2 µM. Further, the viability at 96 h in series [7] stood at 92%.

Consider `COc1ccc(/C=C2\CCc3ccccc3C2=O)c(Cl)c1OC`, for which the IC50 turned out to be 23.4 µM in [1]; 23.3 µM in series [3]; 23.2 µM in series [4]; 22.9 µM in series [5]; 24.5 µM in series [9]; 20.5 µM in series [11]. The compound further showed a half-inhibitory concentration (IC50) in [14] of 26.5 µM. In addition, the viability at 96 h in series [7] came to 96%.

In the case of `COc1cccc(/C=C2\CCc3ccccc3C2=O)c1Cl`, the concentration for half-maximal inhibition (IC50) in series [1] was determined as 28.5 µM; in [3], 25.1 µM; in series [4], 27.9 µM; in [5], 25.1 µM; in series [9], 27.5 µM; in series [11], 26.7 µM. The compound further displayed a 50% inhibitory concentration (IC50) in series [14] of 28.2 µM. In addition, the viability at 96 h in series [7] was 92%.

With `COc1ccc(/C=C2\CC(C)C/C(=C\c3ccc(OC)c(OC)c3Cl)C2=O)c(Cl)c1OC` (stereo not drawn), the IC50 in [1] came out at 3.7 µM; in series [3], 4.4 µM; in series [4] it was 3 µM; in series [5], 2.9 µM; in series [9] it was 3.2 µM; in [11] it was 3.2 µM. It took 2.9 µM to reach half-maximal inhibition in [14] (IC50). In addition, the viability at 96 h in [7] came to 94%.

With `COc1ccc(/C=C2\CCc3ccc(F)cc3C2=O)c(Cl)c1OC`, the 50% inhibitory concentration (IC50) in [1] amounted to 9.3 µM; in series [3], 10.9 µM; in [4], 9.6 µM; in series [5], 10.6 µM; in [9] it was 9.8 µM; in [11], 9.8 µM. This compound also yielded a 50% inhibitory concentration (IC50) in series [14] of 9.4 µM. In series [7], the viability at 96 h is 95%.

`COc1ccc(/C=C2\CNC/C(=C\c3ccc(OC)c(OC)c3Cl)C2=O)c(Cl)c1OC`: the IC50 in [1] was 7 µM; in series [3], 7.5 µM; in series [4], 6.2 µM; in [5], 7.2 µM; in [9], 6.5 µM; in [11], 6.4 µM. In series [14], this compound registered a half-maximal inhibitory concentration (IC50) of 6.6 µM. In addition, the viability at 96 h in series [7] came to 92%.

As to `COc1cccc2c1CC/C(=C\c1cc(OC)c(OC)c(OC)c1Br)C2=O`, the half-maximal inhibitory concentration (IC50) turned out to be 3.9 µM in series [1]; 4.5 µM in series [3]; 4.6 µM in series [4]; 4.7 µM in series [5]; 4.2 µM in series [9]; 5.7 µM in series [11]. The compound further returned an IC50 in series [14] of 3.9 µM. In series [7], the viability at 96 h stood at 94%.
